In assay [1] the test system is TNF-α release in THP-1 cells. The assay can be described thus: SYK dependent TNF-α release assay (IgG stimulation). It counts as cell-based, human. As for the experimental part: Compounds of the present invention are tested for their effects on TNF-α release in human acute monocytic leukimia cell line (THP-1) to illustrate potential efficacy at the cellular level. TNF-α is a cytokine involved in systemic inflammation and is a member of a group of cytokines that stimulate the acute phase reaction. The primary role of TNF-α is in the regulation of immune cells. TNF-α is known to induce apoptotic cell death and inflammation and to inhibit early tumorigenesis and viral replication. Dysregulation and, in particular, overproduction of TNF-α have been implicated in a variety of human diseases, autoimmune disease, inflammation, arthritis and cancer.
Production or release of TNF-α is controlled by type of stimulus to which the cell responds. SYK activity is involved in mediating TNF-α production. When stimulated by IgG, cells increase TNF-α production in a SYK dependent manner (i.e., the SYK dependent pathway). However, when stimulated by lipopolysaccharide (LPS), they produce TNF-α in a SYK independent manner.
Compounds of the invention were tested for their TNF-α release effect on THP-1 cells. For SYK dependent TNF-α release assay (i.e., via IgG stimulation), THP-1 cells derived from human monocytic cells were obtained from the American Type Culture Collection (ATCC, Manassas, Va.). This cell line was maintained with an Roswell Park Memorial Institute (RPMI) medium (GIBCO™) containing 10 fetal bovine serum (FBS; GIBCO™) and 0.05 mM 2-mercaptoethanol. The THP-1 cells were seeded at 1×10^5 cells/100 μL/well into human IgG (10 μg/well, INVITROGENT™)-coated 96 well culture plate, and serially diluted compound was then added. After an 18-hour incubation period at 37° C., supernatants were collected for the determination of the TNF-α level by enzyme-linked immunosorbent assay (ELISA), and the remaining cells were subjected to an MTT (yellow tetrazolium salt) assay to determine the cytotoxic effects of compound.

A further assay has as its target T1, PYK2 (Homo sapiens, UniProt Q14289).
T1 construct: Purified full-length human SYK, ZAP70, PIM1, PYK2; purchased Carna Biosciences
Put plainly: Kinase inhibition assay: PYK2. The settings on record: at 1 μM concentration. It counts as biochemical. As for the experimental part:
(§1) Compounds of the present invention were tested for their capacity to inhibit a kinase panel which includes, but are not limited to, spleen tyrosine kinase (SYK), zeta-chain-associated protein kinase 70 (ZAP70), PTK2B protein tyrosine kinase 2 (PYK2), focal adhesion kinase (FAK), provirus integration of maloney kinase 1 (PIM1), rearranged during transfection kinase (RET), Fms-like tyrosine kinase 3 (FLT3), Janus kinase 2 (JAK2), and leucine-rich repeat kinase 2 (LRRK2).
(§2) Inhibition of SYK, ZAP70, PYK2, FAK, PIM1, RET, FLT3, JAK2 and LRRK2 Kinase Activity
(§3) Compounds of the invention were initially diluted to 10 mM in 100% DMSO (CALBIOCHEM™) for storage and made into kinase buffer solution to create a compound concentration ranging from 1 uM and 10 uM. Serial dilutions of compounds of the invention were dispensed into a 96-well plate (GREINER BIOSCIENCES™) at 6 μL each. Purified full-length human SYK, ZAP70, PIM1, PYK2 and truncated human FAK, RET, FLT3, JAK2, and LRRK2 (CARNA BIOSCIENCES™) were diluted in kinase buffer and added to the compound solutions and pre-incubated for 30 minutes at room temperature (1 hour for PYK2). […] The reaction mixture was incubated for 1 hour (2 hours for PYK2). Following the incubation, the stop solution made with EDTA, water, and Lance detection buffer ([…]™) was added (12μL each) to stop phosphorylation. […] The IC50 value of test compound was calculated at Gradpad Prism 5 unless specified otherwise.

In a further assay the target is T2, PIM1 (Homo sapiens, UniProt P11309).
T2 construct: Purified full-length human SYK, ZAP70, PIM1, PYK2; purchased Carna Biosciences
Put plainly: Kinase inhibition assay: PIM1. It counts as biochemical. The settings on record: at 1 μM concentration. As for the experimental part: as §1, §2
Compounds of the invention were initially diluted to 10 mM in 100% DMSO (CALBIOCHEM™) for storage and made into kinase buffer solution to create a compound concentration ranging from 1 uM and 10 uM. Serial dilutions of compounds of the invention were dispensed into a 96-well plate (GREINER BIOSCIENCES™) at 6 μL each. Purified full-length human SYK, ZAP70, PIM1, PYK2 and truncated human FAK, RET, FLT3, JAK2, and LRRK2 (CARNA BIOSCIENCES™) were diluted in kinase buffer and added to the compound solutions and pre-incubated for 30 minutes at room temperature (1 hour for PYK2). […] The reaction mixture was incubated for 1 hour (2 hours for PYK2). Following the incubation, the stop solution made with EDTA, water, and Lance detection buffer ([…]™) was added (12μL each) to stop phosphorylation. […] Substrate phosphorylation was a function of the 665 nm emission measured following the addition of the detection solution and 50 minutes of incubation. The IC50 value of test compound was calculated at Gradpad Prism 5 unless specified otherwise.

Another assay has as its target T3, SYK (Homo sapiens, UniProt P43405).
T3 construct: Purified full-length human SYK, ZAP70, PIM1, PYK2; purchased Carna Biosciences
Put plainly: Kinase inhibition assay: SYK. Type of assay: biochemical. The settings on record: at 1 μM concentration.

The target in a further assay is T4, ZAP70 (Homo sapiens, UniProt P43403).
T4 construct: Purified full-length human SYK, ZAP70, PIM1, PYK2; purchased Carna Biosciences
T4 sequence (P43403 1-619): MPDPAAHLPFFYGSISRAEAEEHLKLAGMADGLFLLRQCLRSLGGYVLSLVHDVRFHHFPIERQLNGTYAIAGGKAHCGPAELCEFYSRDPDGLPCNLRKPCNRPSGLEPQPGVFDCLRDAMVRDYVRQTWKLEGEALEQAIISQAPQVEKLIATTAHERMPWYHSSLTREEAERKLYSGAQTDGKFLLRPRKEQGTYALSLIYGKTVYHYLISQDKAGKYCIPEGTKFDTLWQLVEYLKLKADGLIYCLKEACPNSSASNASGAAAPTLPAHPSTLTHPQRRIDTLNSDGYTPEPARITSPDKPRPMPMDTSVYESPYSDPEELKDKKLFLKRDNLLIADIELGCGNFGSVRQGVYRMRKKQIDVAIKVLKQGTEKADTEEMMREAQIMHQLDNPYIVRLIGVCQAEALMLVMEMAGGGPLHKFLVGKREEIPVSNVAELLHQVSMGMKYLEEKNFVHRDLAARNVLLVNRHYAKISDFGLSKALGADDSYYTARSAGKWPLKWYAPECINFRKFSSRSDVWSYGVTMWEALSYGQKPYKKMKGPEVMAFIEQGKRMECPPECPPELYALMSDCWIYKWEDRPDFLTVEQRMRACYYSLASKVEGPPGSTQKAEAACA
The assay can be described thus: Kinase inhibition assay: ZAP70. Type of assay: biochemical. The settings on record: at 1 μM concentration. Here is the method: as §1, §2, §3

The source of these data is US8629132B2, “Kinase inhibitors” (Genosco, priority 2009, dated 2014).

T2 sequence (P11309 whole entry): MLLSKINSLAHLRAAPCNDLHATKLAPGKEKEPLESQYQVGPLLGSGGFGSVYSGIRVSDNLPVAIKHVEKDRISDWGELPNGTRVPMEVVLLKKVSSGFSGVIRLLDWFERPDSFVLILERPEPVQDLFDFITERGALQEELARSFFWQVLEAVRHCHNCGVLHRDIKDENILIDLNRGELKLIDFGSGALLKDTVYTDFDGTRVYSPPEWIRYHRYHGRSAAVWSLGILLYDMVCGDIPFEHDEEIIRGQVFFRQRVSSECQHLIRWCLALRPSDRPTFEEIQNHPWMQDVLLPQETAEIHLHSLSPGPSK
T1 sequence (Q14289 whole entry): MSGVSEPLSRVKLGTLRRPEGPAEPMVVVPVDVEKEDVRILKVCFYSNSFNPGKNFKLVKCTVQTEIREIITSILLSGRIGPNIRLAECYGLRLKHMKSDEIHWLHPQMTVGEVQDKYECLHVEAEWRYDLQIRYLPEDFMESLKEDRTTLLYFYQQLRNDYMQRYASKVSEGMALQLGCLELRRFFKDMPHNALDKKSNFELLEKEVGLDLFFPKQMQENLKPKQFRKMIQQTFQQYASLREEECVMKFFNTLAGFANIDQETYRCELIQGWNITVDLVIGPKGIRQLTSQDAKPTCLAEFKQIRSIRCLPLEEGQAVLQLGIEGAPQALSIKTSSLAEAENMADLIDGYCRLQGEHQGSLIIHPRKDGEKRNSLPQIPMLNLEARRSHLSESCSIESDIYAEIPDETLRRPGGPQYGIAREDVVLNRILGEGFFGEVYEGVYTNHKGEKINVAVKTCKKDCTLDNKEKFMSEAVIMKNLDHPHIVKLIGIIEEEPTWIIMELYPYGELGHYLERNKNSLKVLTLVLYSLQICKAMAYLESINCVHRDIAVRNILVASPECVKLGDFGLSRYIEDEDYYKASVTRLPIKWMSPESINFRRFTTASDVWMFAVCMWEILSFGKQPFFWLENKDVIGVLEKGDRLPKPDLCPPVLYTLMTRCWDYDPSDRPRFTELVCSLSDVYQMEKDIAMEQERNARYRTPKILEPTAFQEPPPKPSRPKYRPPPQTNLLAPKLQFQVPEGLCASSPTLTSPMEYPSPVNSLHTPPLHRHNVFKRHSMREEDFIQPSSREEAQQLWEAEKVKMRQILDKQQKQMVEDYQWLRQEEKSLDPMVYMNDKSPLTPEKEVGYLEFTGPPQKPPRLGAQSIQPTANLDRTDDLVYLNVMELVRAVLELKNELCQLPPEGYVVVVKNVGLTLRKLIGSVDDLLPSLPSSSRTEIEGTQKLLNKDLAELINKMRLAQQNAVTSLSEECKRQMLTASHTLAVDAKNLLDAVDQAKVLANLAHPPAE

In assay [1] (Homo sapiens, THP-1 cells, IgG stimulation, 0.3 μM, 18-hour incubation), `Cc1cc(C)cc(Nc2ncc(F)c(-n3cc(C)c(CN4CC[C@@H](O)C4)c3)n2)c1` [Compound 82, (R)-1-((1-(2-(3,5-dimethylphenyl-amino)-5-fluoropyrimidin-4-yl)-4-methyl-1H-pyrrol-3-yl)methyl) pyrrolidin-3-ol] displayed an inhibition at 0.3 µM of 49.2%. The molecule further displayed an inhibition at 1 µM in assay [1] (Homo sapiens, THP-1 cells, IgG stimulation, 1 μM, 18-hour incubation) of 91.4%. Further, the “percentage inhibition of TNF-α release compared with R406” value in assay [1] (IgG stimulated release, 0.3 μM) is on record as “greater that those exhibited by R406”.

With `COc1cc(Nc2ncc(C)c(-n3cc(C)c(CO)c3)n2)cc(OC)c1OC` [Compound 21, (4-methyl-1-(5-methyl-2-(3,4,5-trimethoxyphenylamino)pyrimidin-4-yl)-1H-pyrrol-3-yl)methanol], the inhibition at 1 µM was 78.2% against PYK2, 71.2% against PIM1, 96.4% on SYK and 54.6% at ZAP70.
